Test results taken from patent US20070128217A1 (priority 2003, published 2007).

Columns and labels:
[1] = system: antibodies in sera from SARS patients (sera 1a, 1b, 2, 6, 37, 62, London, SARS-yellow, SARS-green); type: binding, human; parameters: Binding of serum 6 to linear peptides of protein X1 of SARS-CoV Urbani / Binding of serum 37 to linear peptides of protein X1 of SARS-CoV Urbani / Binding of serum 6 to looped/cyclic peptide (PEPSCAN-ELISA) / Binding of serum 37 to looped/cyclic peptide (PEPSCAN-ELISA) / Binding of serum 37 to looped/cyclic peptides of protein X1 of SARS-CoV Urbani / Binding of serum 6 to linear peptides of protein X2 / Binding of serum 37 to linear peptides of protein X2 / Binding of serum 37 to looped/cyclic peptides of protein X2 of SARS-CoV Urbani / Binding of serum 6 to linear peptides of protein M of SARS-CoV Urbani / Binding of serum 37 to linear peptides of protein M of SARS-CoV Urbani / Binding of serum 6 to looped/cyclic peptides of protein M of SARS-CoV Urbani / Binding of serum 37 to looped/cyclic peptides of protein M of SARS-CoV Urbani / Binding of serum 6 to linear peptides of protein X3 of SARS-CoV Urbani / Binding of serum 37 to linear peptides of protein X3 of SARS-CoV Urbani / Binding of serum 37 to looped/cyclic peptides of protein X3 of SARS-CoV Urbani / Binding of serum 6 to linear peptides of protein X4 of SARS-CoV Urbani / Binding of serum 37 to linear peptides of protein X4 of SARS-CoV Urbani / Binding of serum 37 to looped/cyclic peptides of protein X4 of SARS-CoV Urbani / Binding of serum 6 to linear peptides of protein X5 of SARS-CoV Urbani / Binding of serum 37 to linear peptides of protein X5 of SARS-CoV Urbani / Binding of serum 37 to looped/cyclic peptides of protein X5 of SARS-CoV Urbani / Binding of serum 6 to linear peptides of protein N of SARS-CoV Urbani / Binding of serum 37 to linear peptides of protein N of SARS-CoV Urbani / Binding of serum 6 to linear peptide (PEPSCAN-ELISA) / Binding of serum 1a to looped/cyclic peptides of protein N of SARS-CoV Urbani / Binding of serum 1b to looped/cyclic peptides of protein N of SARS-CoV Urbani / Binding of serum 2 to looped/cyclic peptides of protein N of SARS-CoV Urbani / Binding of serum 6 to looped/cyclic peptides of protein N of SARS-CoV Urbani / Binding of serum 37 to looped/cyclic peptides of protein N of SARS-CoV Urbani / Binding of serum 62 to looped/cyclic peptides of protein N of SARS-CoV Urbani / Binding of serum London to looped/cyclic peptides of protein N of SARS-CoV Urbani / Binding of serum SARS-green to looped/cyclic peptides of protein N of SARS-CoV Urbani: unit not given here
[2] = system: rabbit serum obtained by immunizing a rabbit with the SARS-CoV strain Frankfurt 1; type: binding; parameters: Binding of a rabbit serum to linear peptides / Binding of a rabbit serum to looped peptides / Rabbit serum linear peptides / Rabbit serum looped peptides / Binding of a rabbit serum to linear peptides of protein N of SARS-CoV Urbani (Rabbit serum linear peptides) / Binding of a rabbit serum to looped/cyclic peptides of protein N of SARS-CoV Urbani (Rabbit serum looped peptides): unit not given here
[3] = system: control sera (pooled serum of ten healthy LUMC hospital workers; commercial negative donor pooled serum from the Dutch bloodbank); type: binding, human
[4] = system: recombinant human anti-SARS-CoV antibody 03-018; type: binding; parameters: Binding of antibody 03-018 to linear peptides of the N protein of SARS-CoV Urbani / Binding of antibody 03-018 to looped/cyclic peptides of the N protein of SARS-CoV Urbani: unit not given here

Sequence | Binding of serum 1a to linear peptides of protein N of SARS-CoV Urbani [1] | Binding of serum 1a to looped/cyclic peptides of protein N of SARS-CoV Urbani [1] | Binding of serum 1b to linear peptides of protein N of SARS-CoV Urbani [1] | Binding of serum 1b to looped/cyclic peptides of protein N of SARS-CoV Urbani [1] | Binding of serum 2 to linear peptides of protein N of SARS-CoV Urbani [1] | Binding of serum 2 to looped/cyclic peptides of protein N of SARS-CoV Urbani [1] | Binding of serum 6 to linear peptides of protein N of SARS-CoV Urbani [1] | Binding of serum 37 to linear peptides of protein N of SARS-CoV Urbani [1] | Binding of serum 62 to linear peptides of protein N of SARS-CoV Urbani [1] | Binding of serum London to linear peptides of protein N of SARS-CoV Urbani [1] | Binding of serum SARS-green to linear peptides of protein N of SARS-CoV Urbani [1] | Binding of serum SARS-yellow to linear peptides of protein N of SARS-CoV Urbani [1] | Binding of a rabbit serum to linear peptides of protein N of SARS-CoV Urbani (Rabbit serum linear peptides) [2] | Binding of a rabbit serum to looped/cyclic peptides of protein N of SARS-CoV Urbani (Rabbit serum looped peptides) [2] | Control Serum Blood-Bank Looped peptides [3] | Control serum Blood-bank linear peptides [3] | Control serum LUMC linear peptides [3] | Control serum LUMC looped peptides [3] | Binding of antibody 03-018 to linear peptides of the N protein of SARS-CoV Urbani [4] | Binding of antibody 03-018 to looped/cyclic peptides of the N protein of SARS-CoV Urbani [4] | also measured
DEAQPLPQRQKKQPT | 0.2 | 0.2 | 0.2 | 0.1 | 0.3 | 0.2 | 0.3 | 0.8 | 0.7 | 1.5 | 0.6 | 1.6 | 0.1 | 0.0 | 0.3 | 0.7 | 0.8 | 0.3 | 0.1 | 0.2 | Binding of serum 6 to looped/cyclic peptides of protein N of SARS-CoV Urbani [1]: 0.1; Binding of serum 37 to looped/cyclic peptides of protein N of SARS-CoV Urbani [1]: 0.3; Binding of serum 62 to looped/cyclic peptides of protein N of SARS-CoV Urbani [1]: 0.2; Binding of serum London to looped/cyclic peptides of protein N of SARS-CoV Urbani [1]: 0.3; Binding of serum SARS-green to looped/cyclic peptides of protein N of SARS-CoV Urbani [1]: 0.0; Binding of serum SARS-yellow to looped/cyclic peptides of protein N of SARS-CoV Urbani [1]: 0.2
LPQRQKKQPTVTLLP | 0.2 |  | 0.2 |  | 0.3 |  | 0.1 | 0.7 | 0.7 | 0.5 | 0.4 | 0.7 | 0.2 | 0.7 | 0.8 | 0.8 | 0.7 | 0.7 | 0.1 | 0.3 | Recognition of the peptide by sera of SARS-CoV infected individuals, and form (linear, looped/cyclic) in which it is recognized [1]: recognized in looped/cyclic form
KTDEAQPLPQRQKKQ | 0.3 | 0.3 | 0.2 | 0.1 | 0.3 | 0.3 | 0.3 | 0.9 | 0.9 | 1.4 | 0.6 | 1.5 | 0.0 | 0.0 | 0.4 | 0.7 | 0.9 | 0.4 | 0.1 | 0.2 | Binding of serum 6 to looped/cyclic peptides of protein N of SARS-CoV Urbani [1]: 0.6; Binding of serum 37 to looped/cyclic peptides of protein N of SARS-CoV Urbani [1]: 0.3; Binding of serum 62 to looped/cyclic peptides of protein N of SARS-CoV Urbani [1]: 0.1; Binding of serum London to looped/cyclic peptides of protein N of SARS-CoV Urbani [1]: 0.7; Binding of serum SARS-green to looped/cyclic peptides of protein N of SARS-CoV Urbani [1]: 0.2; Binding of serum SARS-yellow to looped/cyclic peptides of protein N of SARS-CoV Urbani [1]: 0.5
